Read-outs that look alike come from different tables or passages of the source.
Tests used:
[1] = system: A2780 (ovarian carcinoma); assay: WST-1 cell proliferation assay, cytotoxicity screening; type: cell-based; settings: Homo sapiens, read-out: growth percent (GP) A2780
Excerpt: (§1) Selected human tumor and nontumor cell lines Jurkat (acute T-cell leukemia), MOLT-4 (acute lymphoblastic leukemia), A549 (lung carcinoma), HT-29 (colorectal adenocarcinoma), PANC-1 (pancreas epithelioid carcinoma), A2780 (ovarian carcinoma), HeLa (cervix adenocarcinoma), MCF-7 (breast adenocarcinoma), SAOS-2 (osteosarcoma) and MRC-5 (nontumor lung fibroblasts) were purchased from European Collection of Authenticated Cell Cultures (ECACC, Salisbury, UK) and cultured according to the provider’s culture method guidelines. […] The cells in low passage number (nontumor primary cell line MRC-5 was used for a maximum of 10 passages and cancer cell lines were used for a maximum of 20 passages) and in an exponential growth phase were used for this study.
(§2) Each cell line was seeded at a previously established optimal density (1 × 10^3 to 50 × 10^3 cells per well) in a 96-well plate (TPP, Trasadingen, Switzerland) and cells were allowed to settle overnight. During screening tests for cytotoxicity, cells were treated with alkaloids at a final concentration of 10 μM for 48 h. Doxorubicin (Sigma-Aldrich, St. Louis, USA), at a concentration of 1 μM, was used as a positive control. At the end of the culture period, the WST-1 proliferation assay (Roche, Basel, Switzerland) was performed according to the manufacturer’s protocol. The absorbance was determined using a Tecan Spark microplate reader (Tecan, Männedorf, Switzerland). Each value is the mean of three independent experiments and represents the percentage of the proliferation of control, nontreated cells (100%). The growth percent (GP) value as the mean of the proliferation decrease was calculated for each cell line and derivative tested.

A549 (lung carcinoma) = assay: as above; type: cell-based; settings: Homo sapiens, read-out: growth percent (GP) A549
Excerpt: as §1, §2

[2] = system: HT-29 (colorectal adenocarcinoma); assay: as above; type: cell-based; settings: Homo sapiens, read-out: growth percent (GP) HT-29
Excerpt: as §1, §2

[3] = system: HeLa (cervix adenocarcinoma); assay: as above; type: cell-based; settings: Homo sapiens, 48 h, read-out: growth percent (GP) HeLa
Excerpt: as §1, §2

[4] = system: Jurkat (acute T-cell leukemia); assay: as above; type: cell-based; settings: Homo sapiens, 48 h, read-out: growth percent (GP) Jurkat
Excerpt: as §1, §2

[5] = system: PANC-1 (pancreas epithelioid carcinoma); assay: as above; type: cell-based; settings: Homo sapiens, read-out: growth percent (GP) PANC-1
Excerpt: as §1, §2

SAOS-2 (osteosarcoma) = assay: as above; type: cell-based; settings: Homo sapiens, read-out: growth percent (GP) SAOS-2
Excerpt: as §1, §2

[6] = system: MCF-7 (breast adenocarcinoma); assay: as above; type: cell-based, human; settings: Homo sapiens, read-out: growth percent (GP) MCF-7
Excerpt: as §1, §2

[7] = system: MOLT-4 (acute lymphoblastic leukemia); assay: as above; type: cell-based, human; settings: Homo sapiens, read-out: growth percent (GP) MOLT-4
Excerpt: as §1, §2

[8] = system: nine human tumor and one nontumor cell lines; assay: Cytotoxicity screening across the whole panel of cell lines; type: cell-based; settings: Homo sapiens, read-out: GP value across the tested cell lines
Excerpt: Concerning the cytotoxicity of alkaloids isolated from Z. citrina, initially, Prakash and Vedanayaki investigated the MeOH extract of the bulbs for its in vitro cytotoxic activity using the MTT assay against three human cancer cell lines from different tissue origins: cervical cancer (HeLa), breast cancer (MCF-7), and oral squamous carcinoma (SCC-9). […] In this context, and to assess potential negative effects on human cell cultures, compounds 1, and 3–27 were screened in our study for cytotoxicity using a 10 μM single-dose regimen. The results were compared with those using the clinically approved antineoplastic agent doxorubicin at 1 μM. The effect on cell growth was investigated on nine human tumor and one nontumor cell lines, namely Jurkat (acute T-cell leukemia), MOLT-4 (acute lymphoblastic leukemia), A549 (lung carcinoma), HT-29 (colorectal adenocarcinoma), PANC-1 (pancreas epithelioid carcinoma), A2780 (ovarian carcinoma), HeLa (cervix adenocarcinoma), MCF-7 (breast adenocarcinoma), SAOS-2 (osteosarcoma) and MRC-5 (nontumor lung fibroblasts). […] No toxicity is valuable information, especially for compound 18, as it is a potent inhibitor of hAChE and hBChE.[27]
Selected human tumor and nontumor cell lines Jurkat (acute T-cell leukemia), MOLT-4 (acute lymphoblastic leukemia), A549 (lung carcinoma), HT-29 (colorectal adenocarcinoma), PANC-1 (pancreas epithelioid carcinoma), A2780 (ovarian carcinoma), HeLa (cervix adenocarcinoma), MCF-7 (breast adenocarcinoma), SAOS-2 (osteosarcoma) and MRC-5 (nontumor lung fibroblasts) were purchased from European Collection of Authenticated Cell Cultures (ECACC, Salisbury, UK) and cultured according to the provider’s culture method guidelines. All cell lines were maintained at 37 °C in a humidified 5% carbon dioxide and 95% air incubator. The cells in low passage number (nontumor primary cell line MRC-5 was used for a maximum of 10 passages and cancer cell lines were used for a maximum of 20 passages) and in an exponential growth phase were used for this study.
as §2

[9] = system: MRC-5 (nontumor lung fibroblasts); assay: WST-1 cell proliferation assay, cytotoxicity screening; type: cell-based; settings: Homo sapiens, read-out: growth percent (GP) MRC-5
Excerpt: as §1, §2

[10] = A2780, c = 10 μM, 48 h, % of proliferation of nontreated control
[11] = A549, c = 10 μM, 48 h, % of proliferation of nontreated control
[12] = HT-29, c = 10 μM, 48 h, % of proliferation of nontreated control
[13] = c = 10 μM, % of proliferation of nontreated control
[14] = PANC-1, c = 10 μM, 48 h, % of proliferation of nontreated control
[15] = SAOS-2, c = 10 μM, 48 h, % of proliferation of nontreated control
[16] = MCF7, c = 10 μM, 48 h, % of proliferation of nontreated control
[17] = MOLT-4, c = 10 μM, 48 h, % of proliferation of nontreated control
[18] = 10 μM single dose, 48-h interval, all tested cell lines

SMILES | activity at 10 µM ([1]; A2780, 48 h) [%] | activity at 10 µM (A549 (lung carcinoma); A549, 48 h) [%] | activity at 10 µM ([2]; HT-29, 48 h) [%] | activity at 10 µM [3] [%] | activity at 10 µM [4] [%] | activity at 10 µM ([5]; PANC-1, 48 h) [%] | activity at 10 µM (SAOS-2 (osteosarcoma); SAOS-2, 48 h) [%] | activity at 10 µM ([6]; MCF7, 48 h) [%] | activity at 10 µM ([7]; MOLT-4, 48 h) [%] | activity at 10 µM ([8]; 48 h) [%] | activity at 10 µM ([9]; MRC5, 48 h) [%] | other results
COc1ccc2c3c1O[C@H]1C[C@@H](O)CC[C@@]31CCN(C)C2 [Compound 19] | 92 | 96 | 83 | 82 | 102 | 102 | 97 | 101 | 105 | > 50 |  | 
COc1cc2c(cc1O)CN1CC[C@@]23C=CC(O)C[C@H]13 (stereo partly shown) [Compound 16] | 101 | 106 | 103 | 114 | 102 | 101 | 98 | 105 | 110 | > 50 | 97 | 
COc1cc2c(c(OC)c1OC)[C@@H](O)O[C@@H]1CC=C3CCN(C)[C@H]3[C@H]21 [Compound 21] |  |  |  |  |  |  |  |  |  |  |  | activity at 10 µM [1, 10]: 95%; activity at 10 µM (A549 (lung carcinoma); [11]): 101%; activity at 10 µM [2, 12]: 83%; activity at 10 µM [3, 13]: 112%; activity at 10 µM [4, 13]: 91%; activity at 10 µM ([9]; MRC5, c = 10 μM, 48 h, % of proliferation of nontreated control): 101%; activity at 10 µM [5, 14]: 90%; activity at 10 µM (SAOS-2 (osteosarcoma); [15]): 105%; activity at 10 µM [6, 16]: 92%; activity at 10 µM [7, 17]: 93%; activity at 10 µM [8, 18]: > 50%
CO[C@@H]1C=C[C@@]23c4cc5c(cc4[C@H](O)N(C[C@@H]2O)[C@H]3C1)OCO5 [Compound 13, haemanthidine] | 52 | 38 | 7 | 25 | 23 | 38 | 35 | 24 | 11 |  |  | 
CC(=O)O[C@@H]1CC=C2CCN3Cc4cc5c(cc4[C@H]1[C@@H]23)OCO5 [Compound 26] |  |  |  |  |  |  |  |  |  |  |  | activity at 10 µM [1, 10]: 141%; activity at 10 µM (A549 (lung carcinoma); [11]): 113%; activity at 10 µM [2, 12]: 107%; activity at 10 µM [3, 13]: 98%; activity at 10 µM [4, 13]: 132%; activity at 10 µM [5, 14]: 119%; activity at 10 µM (SAOS-2 (osteosarcoma); [15]): 95%; activity at 10 µM [6, 16]: 131%; activity at 10 µM [7, 17]: 119%; activity at 10 µM [8, 18]: > 50%
COc1cc2c(cc1O)C(=O)O[C@@H]1CC=C3CCN(C)[C@H]3[C@H]21 [Compound 22] | 94 | 109 | 106 | 96 | 100 | 92 | 103 | 102 | 100 | > 50 | 93 | 
COc1cc2c(cc1OC)[C@@H]1[C@H](O)[C@@H](OC)C=C3CCN(C2)[C@H]31 [Compound 23] |  |  |  |  |  |  |  |  |  |  |  | activity at 10 µM [1, 10]: 113%; activity at 10 µM (A549 (lung carcinoma); [11]): 93%; activity at 10 µM [2, 12]: 64%; activity at 10 µM [3, 13]: 93%; activity at 10 µM [4, 13]: 98%; activity at 10 µM [5, 14]: 97%; activity at 10 µM (SAOS-2 (osteosarcoma); [15]): 97%; activity at 10 µM [6, 16]: 114%; activity at 10 µM [7, 17]: 103%; activity at 10 µM [8, 18]: > 50%
CO[C@@H]1C=C[C@@]23c4cc5c(cc4CN(C[C@@H]2O)[C@H]3C1)OCO5 [Compound 12, haemanthamine] | 38 | 33 | 5 | 16 | 18 | 37 | 34 | 17 | 6 |  | 32 | 
CO[C@@H]1C=C[C@@]23c4cc5c(cc4CO[C@]2(O)CN(C)[C@H]3C1)OCO5 [Compound 20] | 101 | 83 | 57 | 84 | 93 | 76 | 92 | 94 | 95 | > 50 |  | 
O[C@H]1[C@H]2c3cc4c(cc3CN3CCC(=C[C@@H]1O)[C@H]23)OCO4 [Compound 27, lycorine] | 39 | 27 | 5 | 15 | 5 | 36 | 27 | 27 | 9 |  | 25 | 
COc1cccc2c1C(=O)c1c(O)c3c(c(O)c1C2=O)C[C@@](O)(C(=O)CO)C[C@@H]3O[C@H]1C[C@H](N)[C@H](O)[C@H](C)O1 [doxorubicin, reference compound] |  |  |  |  |  |  |  |  |  |  |  | activity at 1 µM ([1]; A2780, positive control, c = 1 μM, 48 h): 5%; activity at 1 µM (A549 (lung carcinoma); A549, positive control, c = 1 μM, 48 h): 66%; activity at 1 µM ([2]; HT-29, positive control, c = 1 μM, 48 h): 77%; activity at 1 µM ([3]; positive control, c = 1 μM): 7%; activity at 1 µM ([4]; positive control, c = 1 μM): 0%; activity at 1 µM ([9]; MRC5, positive control, c = 1 μM, 48 h): 40%; activity at 1 µM ([5]; PANC-1, positive control, c = 1 μM, 48 h): 59%; activity at 1 µM (SAOS-2 (osteosarcoma); SAOS-2, positive control, c = 1 μM, 48 h): 73%; activity at 1 µM ([6]; MCF7, positive control, c = 1 μM, 48 h): 41%; activity at 1 µM ([7]; MOLT-4, positive control, c = 1 μM, 48 h): 0%
